Four compounds from patent publication US11472778B2, “Hepatitis C virus NS3/4A protease inhibitors” (priority 2017, dated 2022) can be followed below.

Assay [1] concerns the target T1, GT1a D168A NS3/4A protease (UniProt P27958, D1194A, species not given).
T1 construct: rows headed: Ki (nM) D168A; Ki D168A; other: D168A variant
The format is biochemical, Hepatitis C virus. In outline:
(§1)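 NS3/4A protease (2 nM; wild-type GT1a or D168A) pre-incubated 1 h at room temperature with increasing inhibitor in 50 mM Tris pH 7.5, 5% glycerol, 10 mM DTT, 0.6 mM LDAO, 4% DMSO. Ki from three independent data sets per construct; ΔG=RTlnKi.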

Assay [2] concerns the target GT1a D168A NS3/4A protease. The format is biochemical, Hepatitis C virus. The settings on record: for Ki (Fold change) GT1a D168A NS3/4A Protease: Table 3, Ki D168A relative to GT1a WT. In outline:
as §1

Assay [3] has as its target T2, wild-type GT1a NS3/4A protease (UniProt P27958).
T2 construct: Ki WT; other: wild-type HCV NS3/4A protease
Format: biochemical, Hepatitis C virus. In outline: as §1

The target in assay [4] is GT1a R155K NS3/4A protease (UniProt P27958, R1181K, species not given). Format: biochemical, Hepatitis C virus. The procedure: (§2) For each assay, 2 nM of NS3/4A protease (GT1a, R155K and D168A) was pre-incubated at room temperature for 1 h with increasing concentration of inhibitors in assay buffer (50 mM Tris, 5% glycerol, 10 mM DTT, 0.6 mM LDAO, and 4% dimethyl sulfoxide, pH 7.5). Inhibition assays were performed in non-binding surface 96-well black half-area plates (Corning) in a reaction volume of 60 μL. […] Three independent data sets were collected for each inhibitor with each protease construct. […] Gibbs free energy of binding was calculated using the following equation: ΔG=RTlnKi

Assay [5] has as its target GT1a R155K NS3/4A protease. The format is biochemical, Hepatitis C virus. The settings on record: fold change in Ki, R155K relative to WT. The procedure:
as §2

The target in assay [6] is T3, GT1a D168A NS3/4A protease (UniProt P27958, C1185S/D1194A, species not given).
T3 construct: Ki (nM) GT1a D168A NS3/4A Protease
Format: biochemical, Hepatitis C virus. The settings on record: read-out: Ki (nM) GT1a D168A NS3/4A Protease. The procedure, abridged:
as §1

Assay [7] concerns the target T4, wild-type GT1a NS3/4A protease (UniProt P27958, C1185S, species not given).
T4 construct: Ki (nM) GT1a WT NS3/4A Protease
Format: biochemical, Hepatitis C virus. The settings on record: read-out: Ki (nM) GT1a WT NS3/4A Protease. In outline: as §1

The next assay deals with T5, GT3a NS3/4A protease (Hepatitis C virus genotype 3a, UniProt Q81495).
T5 construct: drug-resistant variant D168A, and GT3a NS3/4A protease; made in house; host or cells: Escherichia coli BL21(DE3)
T5 sequence (Q81495 1033-1214): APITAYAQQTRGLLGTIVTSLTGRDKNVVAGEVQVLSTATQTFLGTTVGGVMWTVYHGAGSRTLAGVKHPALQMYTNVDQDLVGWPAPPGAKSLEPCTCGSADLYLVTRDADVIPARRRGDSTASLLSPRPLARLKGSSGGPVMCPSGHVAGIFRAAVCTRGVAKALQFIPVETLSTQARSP
In words: biochemical. The settings on record: for Ki (Fold change) GT3a NS3/4A Protease: Table 3, Ki GT3a relative to GT1a WT. The procedure: For each assay, 2 nM of NS3/4A protease (GT1, D168A and GT3) was pre-incubated at room temperature for 1 h with increasing concentration of inhibitors in assay buffer [50 mM Tris, 5% glycerol, 10 mM DTT, 0.6 mM LDAO, and 4% dimethyl sulfoxide]. Inhibition assays were performed in nonbinding surface 96-well black half-area plates (Corning) in a reaction volume of 60 μt. […] Three independent data sets were collected for each inhibitor with each protease construct.

Assay [8] has as its system wild-type HCV replicon in Huh7 cells. In words: Cell-based drug susceptibility (replicon) assay, wild-type. The settings on record: Hepatitis C virus, read-out: Replicon EC50 (nM) WT. In outline:
(§3)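 Huh7, electroporated w/ Con1 (gt1b) luc replicon RNA carrying H77 (gt1a) NS3; mutants by site-directed mutagenesis. Increasing PI concentrations; luciferase (RLU) read 96 h post-electroporation.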

In assay [9] the test system is HCV replicon A156T variant in Huh7 cells. In words: microbe, parasite or virus in culture. Format: cell-based, Hepatitis C virus. As to conditions: for EC50: Hepatitis C virus; for Replicon EC50 (Fold change) A156T: Table 4, relative to WT replicon. The procedure, abridged: as §3
Assay [10] concerns HCV replicon D168A variant in Huh7 cells. The assay is described as follows: microbe, parasite or virus in culture. The format is cell-based, Hepatitis C virus. The settings on record: for EC50: Hepatitis C virus; for Replicon EC50 (Fold change) D168A: Table 4, relative to WT replicon. The procedure, abridged:
as §3

Assay [11] relates to HCV replicon R155K variant in Huh7 cells. In words: microbe, parasite or virus in culture. The format is cell-based, Hepatitis C virus. As to conditions: for EC50: Hepatitis C virus; for Replicon EC50 (Fold change) R155K: Table 4, relative to WT replicon. The procedure, abridged:
as §3

The test system of assay [12] is HCV replicon D168V variant in Huh7 cells. The assay is described as follows: microbe, parasite or virus in culture. Format: cell-based, Hepatitis C virus. The settings on record: for EC50: Hepatitis C virus; for Replicon EC50 (Fold change) D168V: Table 4, relative to WT replicon. The procedure, abridged: as §3
Where [13] appears, read: Huh-7, 96 h, Table 2, Huh7 cells, luciferase 96 h.
[14] abbreviates: Huh-7, 96 h, read-out: Replicon EC50 (nM) A156T, Table 2, Huh7 cells, luciferase 96 h.
Where [15] appears, read: Huh-7, read-out: Replicon EC50 (nM) A156T, Table 4.
Where [16] appears, read: Huh-7, 96 h, read-out: Replicon EC50 (nM) D168A, Table 2, Huh7 cells, luciferase 96 h.
Setting [17] is: Huh-7, read-out: Replicon EC50 (nM) D168A, Table 4.
The mark [18] stands for this setting: Huh-7, 96 h, read-out: Replicon EC50 (nM) R155K, Table 2, Huh7 cells, luciferase 96 h.
Setting [19] is: Huh-7, read-out: Replicon EC50 (nM) R155K, Table 4.
Where [20] appears, read: Huh-7, 96 h, read-out: Replicon EC50 (nM) D168V, Table 2, Huh7 cells, luciferase 96 h.
The mark [21] stands for this setting: Huh-7, read-out: Replicon EC50 (nM) D168V, Table 4.

Where two headings read alike, the source gives them in different places.

Take `C=C[C@@H]1C[C@]1(NC(=O)[C@@H]1C[C@@H](Oc2nc3cc(OC)ccc3nc2C)CN1C(=O)[C@@H](NC(=O)OC(C)(C)C)C(C)(C)C)C(=O)NS(=O)(=O)C1CC1` [Compound 9b, tert-Butyl ((S)-1-((2S,4R)-2-(((1R,2S)-1-((cyclopropylsulfonyl)carbamoyl)-2-vinylcyclopropyl)carbamoyl)-4-((7-methoxy-3-methylquinoxalin-2-yl)oxy)pyrrolidin-1-yl)-3,3-dimethyl-1-oxobutan-2-yl)carbamate]: the Ki amounted to 290 ± 24 nM in [1] (read-out: Ki (nM) D168A, Table 8, linear inhibitors); 290 ± 24 nM in assay [1] (read-out: Ki D168A, D168A variant); 18 ± 1.6 nM in assay [3] (read-out: Ki (nM) WT, Table 8, linear inhibitors); 18 ± 1.6 nM in [3] (read-out: Ki WT, wild-type HCV NS3/4A protease); 8.5 ± 2.1 nM in assay [4] (read-out: Ki (nM) R155K, Table 8, linear inhibitors); 8.5 ± 2.1 nM in assay [4] (read-out: Ki R155K, R155K variant). In addition, in assay [2] (fold change in Ki, D168A relative to WT), the “Ki D168A (fold change)” value was determined as 16. For the same compound, the “Ki R155K (fold change)” value in [5] is listed as 0.5.

Take `CCc1nc2ccc(OC)cc2nc1O[C@@H]1C[C@H]2C(=O)N[C@]3(C(=O)NS(=O)(=O)C4(C)CC4)C[C@H]3/C=C\CCCCC[C@H](NC(=O)OC3CCCC3)C(=O)N2C1` [Compound 23a, Cyclopentyl ((2R,6S,13aS,14aR,16aS,Z)-2-((3-ethyl-7-methoxyquinoxalin-2-yl)oxy)-14a-(((1-methylcyclopropyl)sulfonyl)carbamoyl)-5,16-dioxo-1,2,3,5,6,7,8,9,10,11,13a,14,14a,15,16,16a-hexadecahydrocyclopropa[e]pyrrolo[1,2-a][1,4]diazacyclopentadecin-6-yl)carbamate]: the Ki was found to be 55.2 nM in assay [6] (Table 1); 55.2 ± 5.3 nM in assay [6] (Table 3); 1.37 nM in [7] (Table 1); 1.37 nM in assay [7] (Table 3); 186 nM at GT3a NS3/4A protease. Also, in assay [2], the “Ki (Fold change) GT1a D168A NS3/4A Protease” value was “(40) fold”. The “Ki (Fold change) GT3a NS3/4A Protease” value on GT3a NS3/4A protease is given as “(136) fold”. Further, the concentration for a half-maximal effect (EC50) in [8] (setting [13]) was found to be 0.16 nM; in assay [8] (Huh-7, Table 4), 0.16 nM; in [9] (setting [14]), 10.6 nM; in assay [9] (setting [15]) it was 10.6 nM; in assay [10] (setting [16]), 3.45 nM; in assay [10] (setting [17]), 3.45 nM. The half-maximal effective concentration (EC50) in [11] (setting [18]) came to 2.07 nM; in assay [11] (setting [19]) it was 2.07 nM; in assay [12] (setting [20]) it was 7.08 nM; in assay [12] (setting [21]), 7.08 nM. Moreover, the “Replicon EC50 (Fold change) A156T” value in [9] was “(66) fold”. Also, the “Replicon EC50 (Fold change) D168A” value in assay [10] is on record as “(22) fold”. Also, the “Replicon EC50 (Fold change) R155K” value in assay [11] is “(13) fold”. The “Replicon EC50 (Fold change) D168V” value in assay [12] is “(44) fold”.

Take `COc1ccc2nc(Cl)c(O[C@@H]3C[C@H]4C(=O)N[C@]5(C(=O)NS(=O)(=O)C6(C)CC6)C[C@H]5/C=C\CCCCC[C@H](NC(=O)OC5CCCC5)C(=O)N4C3)nc2c1` [Compound 23c, Cyclopentyl ((2R,6S,13aS,14aR,16aS,Z)-2-((3-chloro-7-methoxyquinoxalin-2-yl)oxy)-14a-(((1-methylcyclopropyl)sulfonyl)carbamoyl)-5,16-dioxo-1,2,3,5,6,7,8,9,10,11,13a,14,14a,15,16,16a-hexadecahydrocyclopropa[e]pyrrolo[1,2-a][1,4]diazacyclopentadecin-6-yl)carbamate]: the Ki in [6] (Table 1) stood at 25.7 nM; in assay [6] (Table 3) it was 25.7 ± 1.8 nM; in assay [7] (Table 1) it was 0.44 nM; in assay [7] (Table 3), 0.44 nM; at GT3a NS3/4A protease, 61 nM. The “Ki (Fold change) GT1a D168A NS3/4A Protease” value in assay [2] is reported as “(58) fold”. Also, the “Ki (Fold change) GT3a NS3/4A Protease” value at GT3a NS3/4A protease was “(139) fold”. Further, the EC50 in [8] (setting [13]) was 0.15 nM; in [8] (Huh-7, Table 4) it was 0.15 nM; in assay [9] (setting [14]) it was 4.32 nM; in assay [9] (setting [15]) it was 4.32 nM; in [10] (setting [16]), 0.97 nM; in assay [10] (setting [17]) it was 0.97 nM. The concentration giving a half-maximal response (EC50) worked out at 0.56 nM in assay [11] (setting [18]), 0.56 nM in [11] (setting [19]), 1.09 nM in assay [12] (setting [20]) and 1.09 nM in assay [12] (setting [21]). In addition, the “Replicon EC50 (Fold change) A156T” value in assay [9] is listed as “(29) fold”. For the same compound, the “Replicon EC50 (Fold change) D168A” value in assay [10] was “(6) fold”. The “Replicon EC50 (Fold change) R155K” value in [11] was “(4) fold”. Also, the “Replicon EC50 (Fold change) D168V” value in assay [12] is recorded as “(7) fold”.

For the compound `COc1ccc2nc(C(F)(F)F)c(O[C@@H]3C[C@H]4C(=O)N[C@]5(C(=O)NS(=O)(=O)C6(C)CC6)C[C@H]5/C=C\CCCCC[C@H](NC(=O)OC5CCCC5)C(=O)N4C3)nc2c1` [Compound 23d, Cyclopentyl ((2R,6S,13aS,14aR,16aS,Z)-2-((7-methoxy-3-(trifluoromethyl)quinoxalin-2-yl)oxy)-14a-(((1-methylcyclopropyl)sulfonyl)carbamoyl)-5,16-dioxo-1,2,3,5,6,7,8,9,10,11,13a,14,14a,15,16,16a-hexadecahydrocyclopropa[e]pyrrolo[1,2-a][1,4]diazacyclopentadecin-6-yl)carbamate], the Ki was found to be 110 nM in assay [6] (Table 1); 110 ± 14 nM in [6] (Table 3); 8.14 nM in [7] (Table 1); 8.14 nM in assay [7] (Table 3); 433 nM on GT3a NS3/4A protease. The “Ki (Fold change) GT1a D168A NS3/4A Protease” value in [2] is on record as “(14) fold”. The “Ki (Fold change) GT3a NS3/4A Protease” value on GT3a NS3/4A protease is given as “(53) fold”. Moreover, the concentration giving a half-maximal response (EC50) in [8] (setting [13]) amounted to 4.04 nM; in assay [8] (Huh-7, Table 4), 4.04 nM; in assay [9] (setting [14]), 75.9 nM; in assay [9] (setting [15]), 75.9 nM; in assay [10] (setting [16]), 8.46 nM; in assay [10] (setting [17]) it was 8.46 nM. Moreover, the EC50 was determined as 6.9 nM in assay [11] (setting [18]), 6.9 nM in assay [11] (setting [19]), 11.4 nM in [12] (setting [20]) and 11.4 nM in assay [12] (setting [21]). Further, the “Replicon EC50 (Fold change) A156T” value in [9] is reported as “(19) fold”. Besides, the “Replicon EC50 (Fold change) D168A” value in assay [10] is “(2) fold”. The “Replicon EC50 (Fold change) R155K” value in [11] is “(2) fold”. Also, in [12], the “Replicon EC50 (Fold change) D168V” value is “(3) fold”.
